The values below come from EP1278521B1, “N-HETEROCYCLIC SUBSTITUTED SALICYLATES FOR THE TREATMENT OF CANCER” (priority 2000, dated 2001).

For series [1] the following is noted: cited from earlier work.
The test system of series [2] is Nb2-SFJCD1 rat lymphoma cells. The experiment in a line: Culture growth inhibition assay in Nb2-SFJCD1 cultures. Format: cell-based. The note with it: for IC50: read-out: IC50 (mM) Average ± S.D.; for growth-inhibitory effect in the presence of elevated cystine: cystine at ca. 3-fold elevated levels in the culture medium, Fig. 5. As to the method: Solubilization of salicylhydroxamic acid and sulfasalazine involved use of 0.1 N NaOH and adjustment of the pH to 7.5-7.7 using 1 N HCl, which was added slowly to the solution swirled by a magnetic stirrer. […] All drugs were obtained from Sigma-Aldrich Canada Ltd., Oakville, ON, Canada. Drug solutions and vehicles (controls) were prepared and assayed under subdued light conditions.
(§1) Nb2 lymphoma is of a pre-T cell origin. The parental line (Nb2 U17) is non-metastatic as subcutaneous implants whereas subline Nb2-SFJCD1 is highly metastatic. Nb2-SFJCD1 cultures (doubling time = 12 - 13 hr) were maintained in Fischer's medium (Sigma-Aldrich), supplemented with 10.0 % horse gelding serum (lactogen-deficient; one batch, ICN Biomedicals, Inc., Auroro, OH), penicillin (50 U/ml) and streptomycin (50 µg/ml). In this medium the cells grow as clumps which can be readily dispersed. Nb2 lymphoma cell lines are used by a number of laboratories; the Nb2-11 subline, is available from the European Collection of Animal Cell Cultures (ECACC) in Salisbury, U.K. The Nb2-U17 and Nb2-SJFCD1 cell lines are available from Dr. Peter W. Gout, B.C. Cancer Research Centre, Vancouver, B.C., Canada.
Nb2-SFTCD1 cells from log phase cultures were centrifaged (3.5 min at 350xg) and gently resuspended in fresh Fisher's medium containing 10% horse gelding serum. Aliquots (1.80 ml) were distributed in 12-well tissue culture plates (Linbro, Flow Laboratories, Mississauga, ON, Canada) and preincubated for 3 - 5 hours at 37°C in a water-saturated 5% CO2/air atmosphere. Solutions of the drugs (200 µl portions) were then added to the cultures for a 45 hour incubation (Cin = 1.0x10^5 cells/ml). Cell populations were determined using an electronic counter (Coulter Electronics, Hialeah, FL).

Series [3] deals with MCF-7 cells. The experiment in a line: Cell proliferation of MCF-7 breast carcinoma cells. Particulars: 10 mM. It counts as cell-based, human. The text has this:
(§2) The effect of sulfasalazine on cell proliferation was subsequently assessed. […] Thus, the xc^- transporter is a target for the anti-cancer actions of sulfasalazine in human breast carcinoma.

In series [4] the test system is Nb2-U17 tumor transplant. Briefly: Assay of tumor growth inhibition in rats. Format: in vivo, Nb rats. Particulars: b.i.d., 7-day period. Here is the method:
(§3) A colony of Nb rats is maintained in the British Columbia Cancer Research Centre Vancouver, B.C., Canada. Approximately equal portions of minced Nb2-U17 tumor tissue, developed subcutaneously in a rat following injection of cultured Nb2-U17 cells, were injected by trocar subcutaneously in the nape of the neck of groups of male Nb rats (one injection per rat), that had been lightly anesthetized with isoflurane (Abbott Laboratories Ltd., Montreal, Canada). […] 2 % CMC or saline were used for controls. Drug preparation and administration were carried out under subdued light conditions. Food and water were provided ad libitum. Tumor size, body weight and general health of the rats were monitored twice a day. Tumor size was measured using calipers and expressed in grams using the formula: π/6 x length x width x height in cm. […] On necropsy the animals were examined for evidence of metastatic spread with particular attention to tissues such as kidneys, liver and spleen, the target tissues of metastatic Nb2 lymphoma cells. Tissue sections were taken for histologic analysis. Non-tumor-bearing animals were used to establish maximally tolerated dosages.

Series [5] concerns DoHH2 cells. The experiment in a line: Culture growth inhibition assay using DoHH2 cells. It counts as cell-based, human. The note with it: 1.5% FBS, 0.05 mM, at hr 45, Fig. 4. As to the method:
as §1, with “Canada. DoHH2 cell suspension cultures (doubling time ca. 20 hours) were maintained in RPMI-1640 medium (Stem Cell Technology, Vancouver, B.C., Canada) containing fetal bovine serum (5%), horse serum (5%) and antibiotics.” for “Canada.”
Assays using DoHH2 cells were similarly performed, using their maintenance medium; Cin = ca. 1.5x10^5 cells/ml (see: Kluin-Nelemans, H.C. et al. (1991) Leukemia 5:221.)

Series [6] relates to MDA-MB-231 cells. Briefly: Cell proliferation of MDA-MB-231 breast carcinoma cells. Format: cell-based, human.
Source text: as §2

The conditions of series [7]: rat, in vivo. Here is the method: as §3
Where [8] appears, read: as reported in the literature for patients/controls undergoing treatment with the drugs.
[9] abbreviates: Rattus norvegicus, 45 h at 37°C, Fischer's medium containing 10.0% horse gelding serum.

The structures appear in SMILES notation. Entries after “also recorded” stand apart in the source; their conditions may differ. Read-outs that look alike come from different tables or passages of the source.

Turning to `Nc1ccc(O)c(C(=O)O)c1` [5-aminosalicylic acid], the “Therapeutic drug levels in plasma” value in series [1] (setting [8]) is “ca. 0.01 mM”.

For `CC(C)Cc1ccc(C(C)C(=O)O)cc1` (stereo not drawn) [Ibuprofen], in series [2] (Rattus norvegicus, 0.1 mM (therapeutic concentration), Fig. 1, read-out: inhibited the growth of the Nb2 cell cultures), the inhibition at 100 µM fell in the range of 5 to 10%. In addition, the half-inhibitory concentration (IC50) – broadly, the point on the concentration scale where inhibition reaches its midpoint – in series [2] (setting [9]) was 0.43 ± 0.01 mM. The “Therapeutic drug levels in plasma” value in series [1] (in vivo) is 0.05 to 0.1 mM.

Regarding `N[C@@H](CCC(=O)O)C(=O)[O-].[Na+]` [Monosodium glutamate], the inhibition of proliferation result in series [3] was “to an extent similar to that observed for sulfasalazine”. Further, in series [3] (2-ME added to the cultures), the “inhibition of proliferation with addition of 2-ME” value was “completely negated this effect”.

As for `CN1C(C(=O)Nc2ccccn2)=C(O)c2ccccc2S1(=O)=O` [Piroxicam], in series [2] (Rattus norvegicus, 0.03 mM (therapeutic concentration), Fig. 1, read-out: inhibited the growth of the Nb2 cell cultures), the inhibition at 30 µM was in the range of 5 to 10%. The concentration for half-maximal inhibition (IC50) in series [2] (setting [9]) turned out to be 0.3 ± 0.02 mM. In addition, the “Therapeutic drug levels in plasma” value in series [1] (in vivo) is 0.015 to 0.03 mM.

Take `NC(=O)c1ccccc1O` [Salicylamide]: the IC50 in series [2] (setting [9]) turned out to be 1.34 ± 0.13 mM.

With `O=C([O-])c1ccccc1O.[Na+]` [Salicylate, sodium, sodium salicylate], in series [2] (Rattus norvegicus, 45 h), the IC50 turned out to be 1.82 ± 0.12 mM. Further, the inhibition at 3000 µM in series [2] (Rattus norvegicus, read-out: inhibited the growth of the Nb2 cell cultures) is about 70%. The “growth-inhibitory effect in the presence of elevated cystine” value in series [2] is on record as “only marginally affected”. Also, the tumor growth inhibition result in series [4] (i.p. 150 mg/kg body wt, 150 mg/kg) is recorded as “did not inhibit tumor growth; also recorded: had no effect”. Besides, in series [1] (setting [8]), the “Therapeutic drug levels in plasma” value was 1 to 3 mM.

Consider `O=C(O)c1cc(/N=N/c2ccc(S(=O)(=O)Nc3ccccn3)cc2)ccc1O` [Sulfasalazine], for which the growth arrest entry in series [2] (0.15 mM, 45 hour experiment) was “only partially arrested growth”. Moreover, the IC50 in series [2] (setting [9]) was about 0.17 mM; in series [6] (Homo sapiens, MDA-MB-231), 300 ± 5 µM. Also, in series [2], the “growth-inhibitory effect in the presence of elevated cystine” value is “substantially reduced”. In addition, the growth-inhibitory activity entry in series [2] (range 0.1 - 0.3 mM, Fig. 2) is “highly potent”. For the same compound, in series [5], the cell lysis entry was “extensive cell lysis”. The lymphoma growth-inhibitory effect result in series [4] (oral administration, 500 mg/kg body wt) is listed as “only minor lymphoma growth-inhibitory effect”. Besides, in series [6] (2-ME (60µM)), the “antagonism of the inhibitory actions by 2-ME” value is recorded as “completely antagonized”. In addition, the “side effects (general health and appearance)” value in series [7] is on record as “no major side effects”. The minor side effect result in series [7] (ip) was “thickening of tissue at the site of the injections”. The “Therapeutic drug levels in plasma” value in series [1] (setting [8]) was 0.08 to 0.2 mM.

As to `Nc1ccc(S(=O)(=O)Nc2ccccn2)cc1` [sulfapyridine], the “Therapeutic drug levels in plasma” value in series [1] (setting [8]) was 0.08 to 0.2 mM.
